Laboratory results published in ChEMBL document CHEMBL4364317, “2-O-(2-chlorobenzoyl) maslinic acid triggers apoptosis in A2780 human ovarian carcinoma cells” (Eur J Med Chem, 2019).
Activity calls are given as the source filed them. No cut-off for these calls is given here.

Experiments:
A2780 [1] = assay: Anticancer activity against human A2780 cells measured after 96 hrs by sulforhodamine B assay; format: functional, cell-based; conditions: A2780, 96 h
HT-29 = assay: Anticancer activity against human HT-29 cells measured after 96 hrs by sulforhodamine B assay; format: functional, cell-based; conditions: HT-29, 96 h
NIH3T3 = assay: Cytotoxicity against mouse NIH/3T3 cells measured after 96 hrs by sulforhodamine B assay; format: cell-based; conditions: NIH3T3, 96 h
A253 cell line = assay: Anticancer activity against human A253 cells measured after 96 hrs by sulforhodamine B assay; format: functional, cell-based; conditions: A253, 96 h
SW-1736 = assay: Anticancer activity against human SW1736 cells measured after 96 hrs by sulforhodamine B assay; format: functional, cell-based; conditions: SW-1736, 96 h
DLD-1 = assay: Anticancer activity against human DLD1 cells measured after 96 hrs by sulforhodamine B assay; format: functional, cell-based; conditions: DLD-1, 96 h
8505C = assay: Anticancer activity against human 8505C cells measured after 96 hrs by sulforhodamine B assay; format: functional, cell-based
A549 = assay: Anticancer activity against human A549 cells measured after 96 hrs by sulforhodamine B assay; format: functional, cell-based; conditions: A549, 96 h
518A2 = assay: Anticancer activity against human 518A2 cells measured after 96 hrs by sulforhodamine B assay; format: functional, cell-based; conditions: 518A2, 96 h
MCF7 = assay: Anticancer activity against human MCF7 cells measured after 96 hrs by sulforhodamine B assay; format: functional, cell-based; conditions: MCF7, 96 h
A2780 [2] = assay: Induction of necrosis in human A2780 cells at 15 uM measured for 72 hrs by acridine orange/propidium iodide staining based fluorescence microscopic analysis; format: functional, cell-based
A2780 [3] = assay: Induction of apoptosis in human A2780 cells assessed as […] cell death at 15 uM measured after 24 to 72 hrs by annexin v flow cytometry analysis; format: functional, cell-based
A2780 [4] = assay: Induction of apoptosis in human A2780 cells assessed as membrane blebbing at 15 uM measured for 72 hrs by acridine orange/propidium iodide staining based fluorescence microscopic analysis; format: functional, cell-based
A2780 [5] = assay: Induction of apoptosis in human A2780 cells assessed as loss of cell membrane integrity at 15 uM measured for 72 hrs by acridine orange/propidium iodide staining based fluorescence microscopic analysis; format: functional
A2780 [6] = assay: Induction of apoptosis in human A2780 cells assessed as loss of cell membrane integrity at 30 uM measured for 72 hrs by acridine orange/propidium iodide staining based fluorescence microscopic analysis; format: functional
A2780 [7] = assay: Induction of apoptosis in human A2780 cells assessed as membrane blebbing at 30 uM measured for 72 hrs by acridine orange/propidium iodide staining based fluorescence microscopic analysis; format: functional, cell-based
A2780 [8] = assay: Induction of necrosis in human A2780 cells at 30 uM measured for 72 hrs by acridine orange/propidium iodide staining based fluorescence microscopic analysis; format: functional, cell-based
A2780 [9] = assay: Induction of apoptosis in human A2780 cells assessed as […] cell death at 30 uM measured after 24 to 72 hrs by annexin v flow cytometry analysis; format: functional, cell-based

Row | Structure (SMILES) | EC50 (A2780 [1]) | EC50 (HT-29) | EC50 (A253 cell line) | EC50 (SW-1736) | EC50 (DLD-1) | EC50 (8505C) | EC50 (A549) | EC50 (518A2) | EC50 (MCF7) | EC50 (NIH3T3) | Activity (A2780 [2]) | Activity (A2780 [3]) | Activity (A2780 [4]) | Activity (A2780 [5]) | Activity (A2780 [6]) | Activity (A2780 [7]) | Activity (A2780 [8]) | Activity (A2780 [9])
1 | CC1(C)CC[C@]2(C(=O)O)CC[C@]3(C)C(=CC[C@@H]4[C@@]5(C)C[C@@H](OC(=O)c6ccccc6)[C@H](OC(=O)c6ccccc6)C(C)(C)[C@@H]5CC[C@]43C)[C@@H]2C1 | 11.2 µM | 16.5 µM | 12.7 µM | 19.4 µM | 17.9 µM | 16.4 µM | 17.4 µM |  |  | 23.2 µM |  |  |  |  |  |  |  | 
2 | CC1(C)CC[C@]2(C(=O)O)CC[C@]3(C)C(=CC[C@@H]4[C@@]5(C)C[C@@H](OC(=O)c6cc([N+](=O)[O-])cc([N+](=O)[O-])c6)[C@H](O)C(C)(C)[C@@H]5CC[C@]43C)[C@@H]2C1 | 6.2 µM | 11.1 µM | 9.7 µM | 14.8 µM | 7.1 µM | 8.1 µM | 6.1 µM | 12.1 µM | 5.1 µM | 17.4 µM |  |  |  |  |  |  |  | 
3 | CC1(C)CC[C@]2(C(=O)O)CC[C@]3(C)C(=CC[C@@H]4[C@@]5(C)C[C@@H](OC(=O)c6ccccc6)[C@H](O)C(C)(C)[C@@H]5CC[C@]43C)[C@@H]2C1 | 6.4 µM | 12.7 µM | 9 µM | 18.2 µM | 10.3 µM | 11.2 µM | 9.1 µM | 15.5 µM |  | 15 µM |  |  |  |  |  |  |  | 
4 | CC1(C)CC[C@]2(C(=O)O)CC[C@]3(C)C(=CC[C@@H]4[C@@]5(C)C[C@@H](O)[C@H](OC(=O)c6cc([N+](=O)[O-])cc([N+](=O)[O-])c6)C(C)(C)[C@@H]5CC[C@]43C)[C@@H]2C1 | 5.5 µM | 9.4 µM | 8.3 µM | 12.8 µM | 7.2 µM | 7.5 µM |  |  | 4.2 µM | 15.7 µM |  |  |  |  |  |  |  | 
5 | CC(=O)O[C@@H]1C[C@]2(C)[C@H]3CC=C4[C@@H]5CC(C)(C)CC[C@]5(C(=O)O)CC[C@@]4(C)[C@]3(C)CC[C@H]2C(C)(C)[C@H]1O | 19.9 µM | 10.7 µM | 11 µM |  | 23.1 µM | 8.8 µM | 4.3 µM | 21 µM | 11.5 µM | 15.4 µM |  |  |  |  |  |  |  | 
6 | CC1(C)CC[C@]2(C(=O)O)CC[C@]3(C)C(=CC[C@@H]4[C@@]5(C)C[C@@H](OC(=O)c6cccnc6Cl)[C@H](OC(=O)c6cccnc6Cl)C(C)(C)[C@@H]5CC[C@]43C)[C@@H]2C1 | 29.3 µM | > 30 µM | > 30 µM | > 30 µM | > 30 µM | > 30 µM | > 30 µM | 17.1 µM | > 30 µM | > 30 µM |  |  |  |  |  |  |  | 
7 | CC(=O)O[C@@H]1C[C@]2(C)[C@H]3CC=C4[C@@H]5CC(C)(C)CC[C@]5(C(=O)O)CC[C@@]4(C)[C@]3(C)CC[C@H]2C(C)(C)[C@H]1OC(C)=O | 17.3 µM | 8.5 µM | 7.7 µM |  | 17 µM | 5.7 µM | 4.2 µM | 14.6 µM | 8.5 µM | 10.4 µM |  |  |  |  |  |  |  | 

Continued, in another order:

Row | EC50 (A2780 [1]) | EC50 (HT-29) | EC50 (A253 cell line) | EC50 (SW-1736) | EC50 (DLD-1) | EC50 (8505C) | EC50 (A549) | EC50 (518A2) | EC50 (MCF7) | Structure (SMILES) | EC50 (NIH3T3) | Activity (A2780 [2]) | Activity (A2780 [3]) | Activity (A2780 [4]) | Activity (A2780 [5]) | Activity (A2780 [6]) | Activity (A2780 [7]) | Activity (A2780 [8]) | Activity (A2780 [9])
8 | 6 µM | 6.3 µM | 12.9 µM | 16.9 µM | 10.7 µM | 12.6 µM | 9.4 µM | 11.6 µM | 7.1 µM | CC1(C)CC[C@]2(C(=O)O)CC[C@]3(C)C(=CC[C@@H]4[C@@]5(C)C[C@@H](OC(=O)c6ccccc6F)[C@H](O)C(C)(C)[C@@H]5CC[C@]43C)[C@@H]2C1 | 16.9 µM |  |  |  |  |  |  |  | 
9 | 4.7 µM | 8.5 µM | 10.4 µM | 13.9 µM | 7.6 µM | 8.9 µM | 7.5 µM | 8.3 µM | 5.6 µM | CC1(C)CC[C@]2(C(=O)O)CC[C@]3(C)C(=CC[C@@H]4[C@@]5(C)C[C@@H](OC(=O)c6ccccc6Cl)[C@H](O)C(C)(C)[C@@H]5CC[C@]43C)[C@@H]2C1 | 10.4 µM | Active | Active | Active | Active |  |  |  | 
10 |  |  |  |  |  |  |  |  | 24.4 µM | CC1(C)CC[C@]2(C(=O)O)CC[C@]3(C)C(=CC[C@@H]4[C@@]5(C)C[C@@H](O)[C@H](O)C(C)(C)[C@@H]5CC[C@]43C)[C@@H]2C1 [MASLINIC ACID] | 16.6 µM |  |  |  |  | Active | Active | Active | Active
11 |  |  | 5.4 µM | 12.9 µM | 5.2 µM | 6.9 µM | 5.8 µM | 6.8 µM | 3.3 µM | CC1(C)CC[C@]2(C(=O)O)CC[C@]3(C)C(=CC[C@@H]4[C@@]5(C)C[C@@H](O)[C@H](OC(=O)c6ccccc6Cl)C(C)(C)[C@@H]5CC[C@]43C)[C@@H]2C1 | 7.1 µM |  |  |  |  |  |  |  | 
12 | 6 µM |  | 6.6 µM | 21.2 µM | 10.1 µM | 12.6 µM | 9.8 µM | 11.8 µM | 6.7 µM | CC1(C)CC[C@]2(C(=O)O)CC[C@]3(C)C(=CC[C@@H]4[C@@]5(C)C[C@@H](O)[C@H](OC(=O)c6ccccc6F)C(C)(C)[C@@H]5CC[C@]43C)[C@@H]2C1 | 12.5 µM |  |  |  |  |  |  |  | 
